Columns and labels:
[1] = target: T1, human orexin type 2 receptor (Homo sapiens, UniProt O43614); test: Measurement of orexin type 2 receptor agonist activity (calcium fluorescence, Fluo-4 AM, FDSS); assay type: cell-based; details: test compound 3 μM; CHO cells expressing human OX2 receptor; DMSO = 0%, orexin A (human) = 100%
T1 construct: expressed in transfected cells
T1 sequence (O43614 1-444): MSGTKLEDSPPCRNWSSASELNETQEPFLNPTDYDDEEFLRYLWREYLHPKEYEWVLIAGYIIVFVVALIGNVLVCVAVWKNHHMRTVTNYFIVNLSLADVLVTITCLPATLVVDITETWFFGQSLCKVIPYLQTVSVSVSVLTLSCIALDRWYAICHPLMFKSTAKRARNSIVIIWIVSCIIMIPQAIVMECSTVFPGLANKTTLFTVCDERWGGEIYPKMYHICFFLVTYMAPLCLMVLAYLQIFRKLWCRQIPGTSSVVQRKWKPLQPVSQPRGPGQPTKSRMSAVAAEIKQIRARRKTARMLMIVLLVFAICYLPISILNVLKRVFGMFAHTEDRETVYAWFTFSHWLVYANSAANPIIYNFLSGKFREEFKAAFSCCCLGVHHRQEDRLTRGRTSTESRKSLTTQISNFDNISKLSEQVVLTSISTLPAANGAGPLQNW
Outline: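 Agonist response scaled between vehicle (0%) and human orexin A at 10 nM final (100%), from 2-min kinetic Fluo-4 fluorescence reads. Stable hOX2R CHO-K1 clone, dye-loaded in HBSS/20 mM HEPES/0.1% BSA with 1.25 mM probenecid before compound addition.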

cynomolgus monkeys = test: Evaluation of wake-promoting effects in cynomolgus monkeys (EEG/EMG); assay type: in vivo, cynomolgus monkey; details: 10 mg/kg p.o. at ZT12, time spent in wakefulness for 4 h after administration, male cynomolgus monkeys, n=2
Method: The wake-promoting effects were evaluated by measuring the electroencephalogram (EEG) and electromyogram (EMG) in cynomolgus monkeys. Under isoflurane anesthesia (0.5-5%, Pfizer Japan Inc., Tokyo, Japan), male cynomolgus monkeys (2-3 years old, Hamri Co., Ltd., Ibaraki, Japan) were surgically implanted with radio-telemetry transmitters (L03-F3, Data Sciences International Inc., MN, USA). EEG electrodes were screwed into the skull at the parietal area. EMG electrodes were implanted on the cervical muscles. After the surgery, each monkey was given penicillin (100,000 units/head, i.m., Meiji Seika Pharma Co., Ltd., Tokyo, Japan), buprenorphine (0.02 mg/kg, i.m., Otsuka Pharmaceutical Co., Ltd., Tokyo, Japan) and prednisolone (1 mg/kg, s.c., Kyoritsu Seiyaku Co., Ltd., Tokyo, Japan) daily for one week. After at least a 1-month recovery period in home cages, the monkeys were habituated to the recording chamber placed in a soundproof room. EEG and EMG signals were recorded using the telemetry system (Ponemah software, Data Sciences International Inc., MN, USA) and the signals were analyzed using SleepSign software (Kissei Comtec Co., Ltd., Nagano, Japan). After confirming long sleep in dark phase in the experimental room, we used animals to examine the wake-promoting effect of compounds. Test compounds (10 mg/kg) suspended in 0.5% methylcellulose aqueous solution, or vehicle (i.e., 0.5% methylcellulose aqueous solution) was administered orally (p.o.) to monkeys at zeitgeber time 12 (ZT12) in a volume of 5 mL/kg body weight in pre-post design (n=2). EEG and EMG recordings were performed for 4 h after the compound administration. The time spent in wakefulness for 4 h after administration (% of vehicle treatment) was calculated by using SleepSign.

Row | OX2R agonist activity (3 μM, %) [1] [%] | SMILES | Wakefulness time (% of vehicle treatment) (Mean) (cynomolgus monkeys)
1 | 96 | C[C@@H]1CN(C(=O)[C@@H]2C[C@@]2(F)c2ccccc2-c2c(F)cccc2F)[C@@H]1CNS(C)(=O)=O [Example 358, N-({(2S,3R)-1-[(1S,2S)-2-(2′,6′-difluoro[1,1′-biphenyl]-2-yl)-2-fluorocyclopropane-1-carbonyl]-3-methylazetidin-2-yl}methyl)methanesulfonamide] | 407.11 % of vehicle treatment
2 | 111 | CCS(=O)(=O)NC[C@@H]1[C@H](F)CN1C(=O)[C@@H]1C[C@@]1(F)c1ccc(F)cc1-c1c(F)cccc1F [Example 412, N-({(2R,3R)-3-fluoro-1-[(1S,2S)-2-fluoro-2-(2′,5,6′-trifluoro[1,1′-biphenyl]-2-yl)cyclopropane-1-carbonyl]azetidin-2-yl}methyl)ethanesulfonamide] | 573.33 % of vehicle treatment
3 | 95 | Cc1ccc([C@]2(F)C[C@H]2C(=O)N2C[C@@H](F)[C@H]2CNS(C)(=O)=O)c(-c2c(F)cccc2F)c1 [Example 411, N-({(2R,3R)-1-[(1S,2S)-2-(2′,6′-difluoro-5-methyl [1,1′-biphenyl]-2-yl)-2-fluorocyclopropane-1-carbonyl]-3-fluoroazetidin-2-yl}methyl)methanesulfonamide] | 361.41 % of vehicle treatment
4 | 104 | CCS(=O)(=O)NC[C@@H]1[C@H](F)CN1C(=O)[C@@H]1C[C@@]1(F)c1ccccc1-c1c(F)cccc1F [Example 393, N-({(2R,3R)-1-[(1S,2S)-2-(2′,6′-difluoro [1,1′-biphenyl]-2-yl)-2-fluorocyclopropane-1-carbonyl]-3-fluoroazetidin-2-yl}methyl)ethanesulfonamide] | 731.96 % of vehicle treatment
5 | 102 | CNS(=O)(=O)NC[C@@H]1[C@H](F)CN1C(=O)[C@@H]1C[C@@]1(F)c1ccc(F)cc1-c1c(F)cccc1F [Example 423, N-({(2R,3R)-3-fluoro-1-[(1S,2S)-2-fluoro-2-(2′,5,6′-trifluoro[1,1′-biphenyl]-2-yl)cyclopropane-1-carbonyl]azetidin-2-yl}methyl)-N′-methylsulfuric Diamide] | 391.59 % of vehicle treatment
6 | 75 | Cc1nnc(C2(NS(C)(=O)=O)CCN(C(=O)[C@@H]3C[C@@]3(F)c3ccccc3-c3c(F)cccc3F)C2)o1 (mixture of isomers) [Example 422, a mixture of N-[(3R)-1-[(1S,2S)-2-(2′,6′-difluoro[1,1′-biphenyl]-2-yl)-2-fluorocyclopropane-1-carbonyl]-3-(5-methyl-1,3,4-oxadiazol-2-yl)pyrrolidin-3-yl]methanesulfonamide and N-[(3S)-1-[(1S,2S)-2-(2′,6′-difluoro[1,1′-biphenyl]-2-yl)-2-fluorocyclopropane-1-carbonyl]-3-(5-methyl-1,3,4-oxadiazol-2-yl)pyrrolidin-3-yl]methanesulfonamide] | 
7 | 92 | O=C([C@@H]1C[C@@]1(F)c1ccc(F)cc1-c1c(F)cccc1F)N1C[C@@H](F)[C@H]1CNS(=O)(=O)CF [Example 430, 1-fluoro-N-({(2R,3R)-3-fluoro-1-[(1S,2S)-2-fluoro-2-(2′,5,6′-trifluoro[1,1′-biphenyl]-2-yl)cyclopropane-1-carbonyl]azetidin-2-yl}methyl)methanesulfonamide] | 
8 | 91 | CCS(=O)(=O)NC[C@@H]1[C@H](F)CN1C(=O)C1CC1(F)c1ccc(F)cc1-c1ccccc1Cl (stereo partly drawn) [Example 440, N-({(2R,3R)-1-[(1R,2R)-2-(2′-chloro-5-fluoro[1,1′-biphenyl]-2-yl)-2-fluorocyclopropane-1-carbonyl]-3-fluoroazetidin-2-yl}methyl)ethanesulfonamide, or N-({(2R,3R)-1-[(1S,2S)-2-(2′-chloro-5-fluoro[1,1′-biphenyl]-2-yl)-2-fluorocyclopropane-1-carbonyl]-3-fluoroazetidin-2-yl}methyl)ethanesulfonamide] | 

The next lines start with the compound.

Row | SMILES | OX2R agonist activity (3 μM, %) [1] [%] | Wakefulness time (% of vehicle treatment) (Mean) (cynomolgus monkeys)
9 | C[C@H](NS(C)(=O)=O)[C@@H]1CCN1C(=O)[C@@H]1C[C@@]1(F)c1ccccc1-c1c(F)cccc1F [Example 353, N-[(1S)-1-{(2S)-1-[(1S,2S)-2-(2′,6′-difluoro [1,1′-biphenyl]-2-yl)-2-fluorocyclopropane-1-carbonyl]azetidin-2-yl}ethyl]methanesulfonamide] | 102 | 397.50 % of vehicle treatment
10 | COCC1(C(=O)N2CC[C@H]2CNS(C)(=O)=O)CC1c1ccccc1-c1c(F)cccc1F (stereo partly drawn) [Example 347, N-({(2S)-1-[(1R,2S)-2-(2′,6′-difluoro[1,1′-biphenyl]-2-yl)-1-(methoxymethyl)cyclopropane-1-carbonyl]azetidin-2-yl}methyl)methanesulfonamide, or N-({(2S)-1-[(1S,2R)-2-(2′,6′-difluoro[1,1′-biphenyl]-2-yl)-1-(methoxymethyl)cyclopropane-1-carbonyl]azetidin-2-yl}methyl)methanesulfonamide] | 95 | 
11 | CN(C)S(=O)(=O)N[C@H]1CCN(C(=O)[C@@H]2C[C@H]2c2ccccc2-c2c(F)cccc2F)C1 [Example 289, N′-{(3S)-1-[(1R,2R)-2-(2′,6′-difluoro[1,1′-biphenyl]-2-yl)cyclopropane-1-carbonyl]pyrrolidin-3-yl}-N,N-dimethylsulfuric diamide] | 99 | 
12 | CN(C)S(=O)(=O)NC[C@@H]1CCN1C(=O)[C@@H]1C[C@H]1c1ccccc1-c1c(F)cccc1F [Example 259, N′-({(2S)-1-[(1R,2R)-2-(2′,6′-difluoro[1,1′-biphenyl]-2-yl)cyclopropane-1-carbonyl]azetidin-2-yl}methyl)-N,N-dimethylsulfuric Diamide] | 98 | 
13 | CS(=O)(=O)NC1CCCN(C(=O)C2CC2c2sccc2-c2ccccc2F)CC1 (racemic) [Example 220, a mixture of rac-N-[(4R)-1-{(1R,2R)-2-[3-(2-fluorophenyl)thiophen-2-yl]cyclopropane-1-carbonyl}azepan-4-yl]methanesulfonamide and rac-N-[(4S)-1-{(1R,2R)-2-[3-(2-fluorophenyl)thiophen-2-yl]cyclopropane-1-carbonyl}azepan-4-yl]methanesulfonamide] | 79 | 

— patent publication US20250250230A1, “HETEROCYCLIC COMPOUND” (TAKEDA PHARMACEUTICAL COMPANY LIMITED, priority 2022, published 2025)
